Reference: ChEMBL document CHEMBL1949517, “Stylissamide X, a new proline-rich cyclic octapeptide as an inhibitor of cell migration, from an Indonesian marine sponge of Stylissa sp” (Bioorg Med Chem Lett, 2012)
Active and inactive are the calls of the source. The calls are words filed in the database; no cut-off is given here. Where a SMILES comes first, the peptide text is derived from it.

Key:
[1] = test system: HeLa; experiment: Anti-cell migration activity at EGF-induced human HeLa cells at 0.1 to 10 uM after 24 hrs by Giemsa-staining based chemotaxicell chamber assay; type: functional
[2] = Cytotoxicity against human HeLa cells assessed as cell viability at 10 uM after 24 hrs by MTT assay; type: cell-based; details: read-out: Activity
[3] = test system: HeLa; experiment: Anti-cell migration activity at human HeLa cells at 0.1 to 10 uM after 24 hrs by wound healing assay; type: functional, cell-based

Q: With `CC[C@H](C)[C@@H]1NC(=O)[C@@H]2CCCN2C(=O)[C@H]([C@@H](C)O)NC(=O)[C@H](CC(C)C)NC(=O)[C@@H]2CCCN2C(=O)[C@H](Cc2ccccc2)NC(=O)[C@H](Cc2c[nH]c3ccccc23)NC(=O)[C@@H]2CCCN2C1=O` [STYLISSAMIDE X] (cyclo(FPLTPIPW)) as the molecule, how does the Activity [1] read?
A: Active

Q: What about the viability at 24 h, 10 µM [2] of the same molecule?
A: > 75%

Q: And the Activity [3]?
A: Active
